Where two headings read alike, the source gives them in different places.
What was measured:
Daudi cells = test: Inhibition of human Daudi lymphoma cell proliferation (Cell-Titer Glo); assay type: cell-based; settings: 3 days incubation, read-out: Anti-Proliferative Activity Against Daudi cells IC50
In short: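 Daudi cells in RPMI 1640 with 10% FBS were seeded and grown 24 h, then exposed for 3 days (37 °C, 5% CO2) to 10-point 3-fold serial dilutions at 0.25% final DMSO. Viability was read by CellTiter-Glo ATP luminescence, and IC50 was fitted from % inhibition against top/bottom controls.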

[1] = Metabolic stability in liver microsomes (CD-1 mouse); assay type: in vitro ADME; settings: CD-1 mouse liver microsomes 0.5 mg/mL, compound 1 μM, NADPH 1 mM, 37° C.; for half-life at 1 μM: pH 7.4
Procedure: 1. Source of liver microsomes: human liver microsomes (Corning 452117), CD-1 mouse liver microsomes (XENOTECH M1000)
1. Formulation of 100 mM phosphate buffer solution (PBS): 7.098 g of Na2HPO4 was weighed and ultrasonically dissolved in 500 mL of pure water to form Solution A. 3.400 g of KH2PO4 was weighed and ultrasonically dissolved in 250 mL of pure water to form Solution B. Solution A was placed in a stirrer and Solution B was slowly added until the pH value reached 7.4, thus formulating 100 mM PBS buffer solution.
The reaction system was formulated according to Table 3 below.
3. The reaction system was placed in a water bath at 37° C. and pre-incubated for 10 minutes. 40 μL of 10 mM NADPH solution (NADPH was dissolved in 100 mM phosphate buffer solution) was added into the reaction system, and the final concentration of NADPH was 1 mM. 40 μL of Phosphate buffer solution was used instead of the NADPH solution as a negative control. The negative control was used to rule out the influence caused by the chemical stability of the compounds per se.
4. The reaction system was added with 4 μL of 100 μM the compound of the present disclosure and Verapamil (the positive control compound) (DMSO as the vehicle), so that the reaction was initiated. The final concentration of the compound was 1 μM.
5. At 0.5, 15, 30, 45 and 60 minutes, after being well mixed in a vortex oscillator, 50 μL of the incubated samples were taken out respectively, and the reaction was terminated with ice acetonitrile (4-fold) containing an internal standard. The samples were centrifuged at 3220 g for 45 minutes. After the centrifugation, 90 μL of the supernatants were transferred to a sample plate and mixed well with 90 μL of ultrapure water for LC-MS/MS analysis.
All data were calculated by Microsoft Excel software. Peak areas were determined from the extracted ion chromatograms. The in-vitro half-life (t1/2) of the parent drug was determined by the linear fitting of the natural logarithm of the elimination percentage of the parent drug versus time.
The in-vitro half-life (t1/2) was calculated from the slope: […]

WI-38 cells = test: Inhibition of human WI-38 embryonic lung cell proliferation (Cell-Titer Glo); assay type: cell-based; settings: Homo sapiens, 72 h, 3 days incubation, read-out: Anti-Proliferative Activity Against WI-38 cells IC50
In short: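 WI-38 cells in EMEM with 10% FBS, seeded 24 h, then exposed to 10-point 3-fold compound dilutions (0.25% DMSO final) for 3 days at 37 °C, 5% CO2. Viability from intracellular ATP by Cell-Titer Glo luminescence; % inhibition normalised to top/bottom signals and IC50 fitted.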

Row | IC50 (Daudi cells) [nM] | t1/2 [1] [h] | IC50 (Daudi cells; Homo sapiens, 72 h) [nM] | half-life at 1 μM [1] [h] | Structure (SMILES) | IC50 (WI-38 cells) [nM]
1 | – | – | 30 | 7.28 | Cc1cc(Nc2ccc(-c3cnc([C@H]4CC[C@H](NC(=O)OC(C)C)CC4)s3)c(P3(=O)CCCC3)c2)n[nH]1 [Example 47, isopropyl trans-N-[4-[5-[4-[(5-methyl-1H-pyrazol-3-yl)amino]-2-(1-oxidophospholan-1-yl)phenyl]thiazol-2-yl]cyclohexyl]carbamate] | > 25000
2 | – | – | 6 | 7.2 | Cc1cc(Nc2ccc(-c3cnc([C@H]4CC[C@H](NC(=O)OC(C)C)CC4)s3)c(S(=O)(=O)C3CC3)c2)n[nH]1 [Example 48, isopropyl trans-(4-(5-(2-(cyclopropylsulfonyl)-4-((5-methyl-1H-pyrazol-3-yl)amino)phenyl)thiazol-2-yl)cyclohexyl)carbamate] | 15600
3 | – | – | 6 | 2.08 | Cc1cc(Nc2ccc(-c3cnc([C@H]4CC[C@H](NC(=O)OC(C)C)CC4)s3)c(S(=O)(=O)C3CC3)c2)nn1C [Example 49, isopropyl trans-(4-(5-(2-(cyclopropylsulfonyl)-4-((1,5-dimethyl-1H-pyrazol-3-yl)amino)phenyl)thiazol-2-yl)cyclohexyl)carbamate] | > 25000
4 | – | – | 26 | 6.27 | Cc1cc(Nc2ccc(-c3cnc(C4CCC(NC(=O)OC(C)C)CC4)s3)c(S(=N)(=O)C3CC3)c2)n[nH]1 (stereo not drawn) [Example 50, isopropyl trans-N-[4-[5-[2-(cyclopropylsulfonimidoyl)-4-]((5-methyl-1H-pyrazol-3-yl)amino]phenyl]thiazol-2-yl]cyclohexyl]carbamate] | > 25000
5 | – | – | 55 | > 8.33 | CC(C)OC(=O)N[C@H]1CC[C@H](c2ncc(-c3ccc(Nc4cn(C)nn4)cc3S(=N)(=O)C3CC3)s2)CC1 (some centres unmarked) [Example 54] | > 25000
6 | – | – | 7 | 1.82 | CC(C)OC(=O)N[C@H]1CC[C@H](c2ncc(-c3ccc(Nc4n[nH]c5ccccc45)cc3S(=O)(=O)C3CC3)s2)CC1 [Example 56, isopropyl trans-(4-(5-(4-((1H-indazol-3-yl)amino)-2-(cyclopropylsulfonyl)phenyl)thiazol-2-yl)cyclohexyl)carbamate] | > 25000
7 | – | – | 7 | 2.1 | CC(C)OC(=O)N[C@H]1CC[C@H](c2ncc(-c3ccc(Nc4cc5ccccn5n4)cc3S(=O)(=O)C3CC3)s2)CC1 [Example 57, isopropyl trans-(4-(5-(2-(cyclopropylsulfonyl)-4-(pyrazolo[1,5-a]pyridin-2-ylamino)phenyl)thiazol-2-yl)cyclohexyl)carbamate] | > 25000
8 | – | – | 4 | 5.77 | Cc1cc(Nc2ccc(-c3cnc([C@H]4CC[C@H](NC(=O)OC(C)C)CC4)s3)c(S(=O)(=O)C3COC3)c2)n[nH]1 [Example 92, isopropyl trans-N-[4-[5-[4-[(5-methyl-1H-pyrazol-3-yl)amino]-2-(oxetan-3-ylsulfonyl)phenyl]thiazol-2-yl]cyclohexyl]carbamate] | 19500
9 | – | – | 32 | > 8.33 | Cc1cc(Nc2ccc(-c3cnc([C@H]4CC[C@H](NC(=O)OC(C)C)CC4)s3)c(S(=N)(=O)C3CC3)c2)n(C)n1 (stereo partly drawn) [Example 98, isopropyl trans-(4-(5-(2-(cyclopropanesulfonimidoyl)-4-((1,3-dimethyl-1H-pyrazol-5-yl)amino)phenyl)thiazol-2-yl)cyclohexyl)carbamate] | > 25000
10 | – | – | 47 | > 8.33 | Cc1cc(Nc2ccc(-c3cnc([C@H]4CC[C@H](NC(=O)OC(C)C)CC4)s3)c(P3(=O)CCC3)c2)n[nH]1 [Example 103, isopropyl trans-(4-(5-(4-((5-methyl-1H-pyrazol-3-yl)amino)-2-(1-oxophosphetan-1-yl)phenyl)thiazol-2-yl)cyclohexyl)carbamate] | > 25000

The remaining lines, values behind:

Row | Structure (SMILES) | IC50 (Daudi cells) [nM] | t1/2 [1] [h] | IC50 (Daudi cells; Homo sapiens, 72 h) [nM] | half-life at 1 μM [1] [h] | IC50 (WI-38 cells) [nM]
11 | COc1ccc(-c2ccc(-c3cnc([C@H]4CC[C@H](NC(=O)OC(C)C)CC4)s3)c([S@@](=N)(=O)C3CC3)c2)cn1 (stereo in doubt) [Example 94] | 20 | 3.4 | – | – | –
12 | CC(C)OC(=O)Nc1ccc(-c2cnc([C@H]3CC[C@H](NC(=O)OC(C)C)CC3)s2)c(P(C)(C)=O)c1 [Example 1, isopropyl trans-N-[3-dimethylphosphoryl-4-[2-[4-(isopropoxycarbonylamino)cyclohexyl]thiazol-5-yl]phenyl]carbamate] | – | – | 1620 | > 8.33 | > 25000
13 | CC(C)OC(=O)Nc1ccc(-c2cnc([C@H]3CC[C@H](NC(=O)OC(C)C)CC3)s2)c(S(=O)(=O)C(C)C)c1 [Example 2, isopropyl trans-N-[4-[2-[4-(isopropoxycarbonylamino)cyclohexyl]thiazol-5-yl]-3-isopropylsulfonyl-phenyl]carbamate] | – | – | 390 | 4.27 | > 25000
14 | CC(C)OC(=O)Nc1ccc(-c2cnc(C3CCC(NC(=O)OC(C)C)CC3)s2)c(S(=N)(=O)C(C)C)c1 (stereo not drawn) [Example 3, isopropyl trans-N-[4-[2-[4-(isopropoxycarbonylamino)cyclohexyl]thiazol-5-yl]-3-(isopropylsulfonimidoyl)phenyl]carbamate] | – | – | 1080 | > 8.33 | > 25000
15 | CC(C)OC(=O)Nc1ccc(-c2cnc(C3CCC(NC(=O)OC(C)C)CC3)s2)c([S+]([O-])C(C)C)c1 (stereo not drawn) [Example 32, isopropyl trans-N-[4-[2-[4-(isopropoxycarbonylamino)cyclohexyl]thiazol-5-yl]-3-isopropylsulfinyl-phenyl]carbamate] | – | – | 420 | 2.7 | 23000
16 | CC(C)OC(=O)Nc1ccc(-c2cnc([C@H]3CC[C@H](NC(=O)OC(C)C)CC3)s2)c(S(=O)(=O)C2CC2)c1 [Example 33, isopropyl trans-N-[3-cyclopropylsulfonyl-4-[2-[4-(isopropoxycarbonylamino)cyclohexyl]thiazol-5-yl]phenyl]carbamate] | – | – | 100 | 4.13 | > 25000
17 | CC(C)OC(=O)N[C@H]1CC[C@H](c2ncc(-c3ccc(NC(=O)NCc4ccccc4)cc3S(=N)(=O)C3CC3)s2)CC1 (stereo partly drawn) [Example 65, isopropyl trans-(4-(5-(4-(3-benzylureido)-2-(cyclopropanesulfonimidoyl)phenyl)thiazol-2-yl)cyclohexyl)carbamate] | – | – | 37 | 1.33 | > 25000
18 | CC(C)OC(=O)Nc1ccc(-c2cnc([C@H]3CC[C@H](NC(=O)OC(C)C)CC3)s2)c(S(=N)(=O)C2CC2)c1 (stereo partly drawn) [Example 68, isopropyl trans-N-[3-(cyclopropylsulfonimidoyl)-4-[2-[4-(isopropoxycarbonylamino)cyclohexyl]thiazol-5-yl]phenyl]carbamate] | – | – | 100 | 2.82 | > 25000
19 | CC(C)OC(=O)NC1CCC(c2ncc(-c3ccc(Nc4ccc(F)cn4)cc3S(=N)(=O)C3CC3)s2)CC1 (stereo not drawn) [Example 81, isopropyl trans-N-[4-[5-[2-(cyclopropylsulfonimidoyl)]-4-[(5-fluoro-2-pyridyl)amino]phenyl]thiazol-2-yl]cyclohexyl]carbamate] | – | – | 40 | 3.5 | 14000
